In US7919577B2, “Adrenocorticotropic hormone analogs and related methods” (Colorado Seminary, priority 2004, dated 2011):
No end group written: not given here.

Legend:
[1] = test system: explanted mouse adrenal membrane (adrenal halves); test: in vitro Serum-free Adrenal Inhibition Assay (Example 4); assay type: cell-based; conditions: FIG. 4
Method: A series of separate in vitro Serum-Free Adrenal Corticosteroid Inhibition Assay were performed to identify ACTH analogs that inhibit ACTH-induced adrenal hormone production in vitro. The concentration of corticosterone was measured according to the procedure of Example 4 in a serum-free culture medium containing explanted adrenal membrane and unmodified ACTH, AT814 ACTH analog (SEQ ID NO:20), or a combination of ACTH and AT814 at 100 ng/mL each. […] Corticosterone levels were taken at 2.0 hours after the adrenal membrane was placed in the serum free M199 medium, and each corticosterone level in Table 5 is an average of five samples.
The in vitro Serum-free Adrenal Inhibition Assay was performed according the following method. First, adrenals were removed from mice, dissected free of fat, and cut in half. See Costa, J L, et al., “Mutational analysis of evolutionarily conserved ACTH residues,” Gen Comp Endocrinol. 136:12-16 (2004); and Weber, M M, et al., “Postnatal overexpression of insulin-like growth factor II in transgenic mice is associated with adrenocortical hyperplasia and enhanced steroidogenesis,” Endocrinology 140:1537-1543 (1999), incorporated herein by reference.
Second, each adrenal half was placed into an individual well of a 4-well dish, one dish per mouse. Adrenal halves were incubated at 5% CO2, 37° C., in 0.5 ml serum-free medium (M199; Invitrogen) for 30 minutes to equilibrate.
Third, medium was removed and replaced by 0.5 ml M199 containing ACTH, AT814, or both, at 100 ng/ml each; controls had no peptides added.
Fourth, after 2 hours of incubation, the medium was removed, pooled for all four halves from each mouse, and assayed by corticosterone using standard RIA methods. corticosterone was determined by competitive radioimmunoassay (^125I RIA kit; ICN, Costa Mesa, Calif.) according to the manufacturer's recommendations. One microliter of serum was used per assay sample. Samples were run in duplicates.

[2] = target: T1, adrenal ACTH receptors such as MC-2R (explanted adrenal membrane) (Mus musculus, UniProt Q64326+Q9D159); test: in vitro Serum-free Adrenal Competitive Binding Assay (Example 3); conditions: cold peptide at 10 nM, 100 nM, 1000 nM; CPM; FIG. 3
T1 construct: the adrenal halves were macerated or otherwise dissociated using Dounce Homogenizer to form a membrane fraction; from tissue; host or cells: mouse adrenal glands (explanted, homogenised to a membrane fraction)
T1 sequence (Q64326 whole entry): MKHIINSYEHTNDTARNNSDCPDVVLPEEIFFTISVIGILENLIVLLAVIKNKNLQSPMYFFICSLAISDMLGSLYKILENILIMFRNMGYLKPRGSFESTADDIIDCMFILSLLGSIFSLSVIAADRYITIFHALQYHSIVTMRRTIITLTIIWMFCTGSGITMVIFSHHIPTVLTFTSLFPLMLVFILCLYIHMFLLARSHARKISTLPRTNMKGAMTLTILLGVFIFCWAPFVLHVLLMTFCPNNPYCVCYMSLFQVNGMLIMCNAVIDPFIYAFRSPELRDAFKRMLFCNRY
T1 sequence (Q9D159 whole entry): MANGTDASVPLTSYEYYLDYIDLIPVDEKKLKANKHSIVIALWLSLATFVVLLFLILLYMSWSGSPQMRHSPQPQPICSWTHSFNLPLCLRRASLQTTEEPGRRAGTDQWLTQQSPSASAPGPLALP
Excerpt: ACTH analog compounds that bind to adrenal membrane with a greater affinity than endogenous unmodified ACTH, and are able to displace unmodified ACTH can be identified using an in vitro Serum-free Adrenal Competitive Binding Assay (Example 3). […] A higher CPM level indicates the presence of greater amounts of the radiolabelled compound. […] Column 220 indicates the level of radio-labeled unmodified mACTH(1-24) detected after combining the explanted adrenal membrane with only the radio-labeled mACTH(1-24) for 2 hours (no competitive binding). Columns 230, 240, and 250 show the results of competitive binding assays for binding of non-radio-labeled (“cold”) mACTH(1-24) to displace the radio-labeled mACTH(1-24) from the explanted adrenal membrane (measured in column 220) by competitive binding to receptors such as MC-2R on the adrenal membrane. […]
ACTH analogs with the ability to bind adrenal receptors with a greater affinity than compounds with known adrenal binding activity (preferably ACTH) can also be identified by performing an in vitro Adrenal Competitive Binding Assay, whereby measurement of the reduction in the amount of the radiolabelled adrenal-binding compound (e.g., ACTH) is measured at various concentrations of non-radio-labeled ACTH analog test compound in a medium containing explanted adrenal membrane. […]

N-Ser^1-Tyr-Ser-Met-Glu^5-His-Phe-Arg-Trp-Gly^10-Lys-Pro-Val-Gly-Lys^15-Arg-Ala-Ala-Trp-Val^20-Lys-Val-Tyr-Pro-Ac (SYSMEHFRWGKPVGKRAAWVKVYP; not fully specified; printed as N-Ser1-Tyr-Ser-Met-Glu5-His-Phe-Arg-Trp-Gly10-Lys-Pro-Val-Gly-Lys15-Arg-Ala-Ala-Trp-Val20-Lys-Val-Tyr-Pro-Ac) [AT814]
corticosterone induction by analog alone ([1]; AT814 alone in M199 serum-free medium): only a negligible amount of corticosterone induction
reduction of corticosterone induction compared to unmodified ACTH alone ([1]; equal amounts of AT814 and unmodified ACTH): about 65%
displacement of radio-labeled mACTH(1-24) from explanted adrenal membrane [2]: displacement of the radio-labeled mACTH(1-24)
